The subject of one series is anesthetized dogs. Kind of series: Electromagnetic blood flow measurement (vertebral/cerebral blood flow). The format is in vivo. As to conditions: vertebral blood flow, administration via saphenous vein. The protocol: After orotraqueal intubation, artificial respiration with normal air was instituted using a Manley Pul- movent respirator. The correct ventilation of the dogs was checked after all the surgical procedures by determining the pO2, pCO2 and pH in arterial blood samples, as well as several times during the experiment by means of an Astrup apparatus. Blood pressure (4) was measured in left saphenous artery by means of a Bell & Howell pressure transducer, and the heart rate by means of a Beckman ECG device.
Recordings were made on an ink-writing Beckman polygraph. Left saphenous vein and right saphenous artery were canulated with polyethylene catheters for drug administration and blood collection respectively.
Vertebral blood flow was measured by a non-cannulating electromagnetic flowmeter (Carolina Medical Electronics) placed in the vertebral artery.
The Carolina digital flowmeter was connected to an Omniscribe Houston Instruments plotter.
Piracetam and nicotinic acid were used as control drugs.

The subject of series [1] is animals. In words: Protection against lethality: hypoxia-hypobara (decompression), survival time. Format: in vivo.
The test system of another series is mouse. In words: Protection against lethality: quick decapitation, gasping time. The format is in vivo. As to conditions: gasping time after decapitation of mouse.
Series [2] deals with animals. In words: Protection against lethality: anoxia by CNK, survival time. Format: in vivo.
The next series is described as follows: Acute toxicity LD50. To be noted: in vivo; species and route not given.

Molecules are shown by their SMILES.

Text for mouse: The second trial is the quick decapitation of mouse. The head has a typical mandibular movement, known as gasping, as searching the breathing air.

In the case of `COc1ccc(CN2CCN(C(=O)CN3CCCC3=O)CC2)cc1` [N-[(2-oxo-1-pyrrolidinyl)acetyl]-N'-(p-methoxybenzyl)piperazine], in the series with anesthetized dogs (dose 1 mg/kg), the effect entry is recorded as “Active”. Also, in the series on animals [1] (dose 250 mg/kg), the hypoxia hypobara entry was “Active”. Besides, the gasping result in the series on mouse (dose 250 mg/kg) is given as “Active”. Besides, in the series with animals [2] (dose 250 mg/kg), the “anoxia by CNK” value was “No effect”. In the series “Acute toxicity LD50”, this compound had an LD50 of 1110 mg/kg.

As for `C=CCN1CCN(C(=O)CN2CCCC2=O)CC1` [N-[(2-oxo-1-pyrrolidinyl)acetyl]-N'-allylpiperazine], in the series on anesthetized dogs (dose 2,5 mg/kg), the effect entry is “Active”. In the series on animals [1] (dose 500 mg/kg), the hypoxia hypobara result is reported as “Active”. For the same compound, the gasping entry in the series with mouse (dose 500 mg/kg) is “Active”. Moreover, in the series with animals [2] (dose 500 mg/kg), the “anoxia by CNK” value was “Active”. This compound also registered an LD50 in the series “Acute toxicity LD50” of 4000 mg/kg.

For `O=C1NC(=O)C(c2ccccc2)(c2ccccc2)N1` [Diphenylhydantoine, reference compound], the hypoxia hypobara entry in the series with animals [1] (dose 100 mg/kg) is “Active”. Also, in the series with animals [2] (dose 100 mg/kg), the “anoxia by CNK” value was “Active”.

Regarding `NC(=O)CN1CCCC1=O` [(2-oxo-1-pyrrolidinyl)acetamide, reference compound], the effect result in the series with anesthetized dogs (no dose given) is reported as “No effect”. Besides, in the series with animals [1] (dose 1000 mg/kg), the hypoxia hypobara result is recorded as “No effect”. For the same compound, in the series on mouse (dose 1000 mg/kg), the gasping entry is “No effect”. In addition, the “anoxia by CNK” value in the series with animals [2] (dose 1000 mg/kg) is given as “No effect”.

Turning to `O=C(CN1CCCC1=O)N1CCN(CC=Cc2ccccc2)CC1` [N-[(2-oxo-1-pyrrolidinyl)-acetyl]-N'-cinnamylpiperazine], the effect entry in the series with anesthetized dogs (dose 2,5 mg/kg) is “Active”. Moreover, the hypoxia hypobara result in the series on animals [1] (dose 300 mg/kg) is given as “Active”. In addition, the gasping result with mouse (dose 300 mg/kg) was “Active”. Further, the “anoxia by CNK” value with animals [2] (dose 300 mg/kg) is recorded as “Active”. Besides, in the series “Acute toxicity LD50”, the LD50 was found to be 1400 mg/kg.

Take `O=C(O)c1cccnc1` [Nicotinic acid, reference compound]: the effect result with anesthetized dogs (no dose given) is “No effect”.

A word on the LD50: it is the dose expected to kill half of the subjects tested.
